Tests used:
[1] = test system: CD4+ T-cells and dendritic cells; test: I-MUNE assay: CD4+ T-cell proliferation to 15-mer peptide sets presented by dendritic cells; type: cell-based, human; design: Structure Value: scale not given here; quantitative response among responders: unit not given here; settings: for statistical significance of the peptide response: conservative and non-conservative Poisson methods; for Average percent response to epitope peptide: Table 6, repeat tests of the epitope peptide on discrete donor groups; for effect of substitution on percent of responders to the epitope: peptide #49 variants, 69 donors; for Response/Peptide: SI>2.95; for response to the peptide: beta-lactamase peptide set, 3× above the background
Experimental: All peptides were obtained from a commercial source (Mimotopes, San Diego, C-A). For the I-MUNE® assay system described herein, 15-mer peptides offset by 3 amino acids that described the entire sequence of the proteins of interest were synthesized in a multipin format (See, Maeji et al., J. Immunol. Meth., 134:23-33 [1990]). Peptides were resuspended in DMSO at approximately 1 to 2 mg/ml, and stored at −70° C. prior to use. Each peptide was tested at least in duplicate, although for small peptide sets (e.g., Ber e 1), the peptides were routinely tested in triplicate.
Volunteer donor human blood buffy coat samples were obtained from two commercial sources (Stanford Blood Center, Palo Alto, Calif., and the Sacramento Medical Foundation, Sacramento, Calif.). Buffy coat samples were further purified by density separation. Each sample was HLA typed for HLA-DR and HLA-DQ using a commercial PCR-based kit (Bio-Synthesis).
Monocytes were purified by adherence to plastic in AIM V medium (Gibco/Life Technologies). Adherent cells were cultured in AIM V media containing 500 units/ml of recombinant human IL-4 (Endogen) and 800 units/ml recombinant human GM-CSF (Endogen) for 5 days. On day 5, recombinant human IL-1α (Endogen) and recombinant human TNF-α (Endogen) were added to 50 units/ml and 0.2 units/ml, respectively. On day 7, the fully matured dendritic cells were treated with 50 μg/ml mitomycin C (Sigma) for 1 hour at 37° C. Treated dendritic cells were dislodged with 50 mM EDTA in PBS, washed in AIM V medium, counted, and resuspended in AIM V media at 2×10^5 cells/ml.
CD4^+ T-cells were purified by negative selection from frozen aliquots of human peripheral blood mononuclear cells (PBMC) using Cellect CD4 columns (Cedarlane). […] CD4^+ T-cells were resuspended in AIM V media at 2×10^6 cells per ml.
CD4^+ T-cells and dendritic cells were plated in round-bottomed 96 well format plates at 100 μl of each cell mix per well. Peptide was added to a final concentration of approximately 5 ug/ml in 0.25-0.5% DMSO. Control wells contained 0.5% DMSO without added peptide. Each peptide was tested in duplicate. Cultures were incubated at 37° C., in 5% CO2 for 5 days. On day 5, 0.5 uCi of tritiated thymidine (NEN DuPont) was added to each well. On day 6, the cultures were harvested onto glass fiber mats using a TomTec manual harvester (TomTec), then processed for scintillation counting. Proliferation was assessed by determining the average counts per minute (CPM) value for each set of duplicate wells (TriLux Beta). This method is also described in U.S. Pat. No. 6,218,165 and Stickler et al., J. Immunother. 23: 654-660 (2000), both of which are herein incorporated by reference.
For each individual buffy coat sample, the average CPM values obtained in the I-MUNE® assay for all of the peptides were analyzed. The average CPM values for each peptide were divided by the average CPM value for the control (DMSO only) wells to determine the “stimulation index” (SI). Donors were tested with each peptide set until an average of at least two responses per peptide were compiled. The data for each protein was graphed showing the percent responders to each peptide within the set. A positive response was collated if the SI value was equal to or greater than 2.95. This value was chosen as it approximates a difference of three standard deviations in a normal population distribution. For each protein assessed, positive responses to individual peptides by individual donors were compiled. To determine the background response for a given protein, the percent responders for each peptide in the set were averaged and a standard deviation was calculated. SI values for each donor were compiled for each peptide set, and the percent of responders reported.

HLA-DR6(13) = test: Peptide binding competition assay, HLA class II; design: species or system human; settings: competition with standard peptide
Experimental: In addition to the above I-MUNE® assay, peptide binding assays were also performed. The peptide binding assay used during the development of the present invention is known in the art (Southwood et al., J. Immunol., 160:3363-3373 [1998]). Briefly, HLA-DR and -DQ molecules were purified from a panel of EBV transformed cell lines. A competition assay was performed with a characterized standard peptide, and the unknown peptide. The amount of unknown peptide required to compete 50% of the standard peptide binding was then determined (indicated as the IC50).
The IC50 for HLA class II protein binding was determined for peptide epitopes defined by the in two related industrial bacterial proteases (See, FIG. 17). The peptides were tested in a competition assay for binding to 18 different HLA-DR and -DQ proteins. […] This likely explains the association seen in the data for a response to this peptide with HLA-DR6(13) donors (p=0.00015; relative risk=7.22, n=113 donors tested). Those results with values less than 500 nM were considered to be good binders and are highlighted in bold in FIG. 17. Also, in this Figure, degeneracy indicates the number of HLA Class II proteins that bind with an IC50 of less than 500 nM out of the 18 total alleles tested.

[2] = Table 3, Stanford and Sacramento donors

ITPLMKAQSVPGMAV (listed as Enterobacter cloacae) [Peptide #6]
statistical significance of the peptide response [1]: reached statistical significance using less conservative analyses

BPN′ Y217L #24: 15-mer epitope peptide number 24 of BPN′ Y217L, amino acids 70-84 (GTVAALNNSIGVLGV)
Average percent response to epitope peptide [1]: 11.69% | IC50 (HLA-DR6(13)): 0.69 nM

GTTRLYANASLGLFG (synthetic variant) [I155L]
effect of substitution on percent of responders to the epitope [1]: had little effect

GTTRLYANASFGLFG (synthetic variant) [I155F]
effect of substitution on percent of responders to the epitope [1]: had little effect

Ecotin: serine protease inhibitor from E. coli K12; GenBank Accession No. NP—416713
Background % ([1]; Table 3): 5.69% | Response/Peptide ([1]; Table 3): 3.98 | Structure Value [1, 2]: 0.64

MLDLATYTAGGLPLQ (listed as Enterobacter cloacae) [Peptide #36]
quantitative response among responders ([1]; DR1+ responders): 7.8 | quantitative response among responders ([1]; DR1− responders): 4.42 | response to the peptide [1]: 12.11% | statistical significance of the peptide response [1]: significant (p<0.05)

TGGFGSYVAFLPEKQ (TGGFGSYVAFIPEKQ; listed as Enterobacter cloacae) [Peptide #107]
quantitative response among responders ([1]; DR1+ responders): 5.4 | quantitative response among responders ([1]; DR1− responders): 4.2 | response to the peptide [1]: 12.11% | statistical significance of the peptide response [1]: significant (p<0.05)

hTpo: human thrombopoietin
structure value, in words [1]: comparatively high | Average Background ([1]; Table 2): 2.56 | Number of epitope regions ([1]; Table 2): 1 | Response per peptide ([1]; Table 2): 2.54 | Structure Value ([1]; Table 2): 0.65 | Background % ([1]; Table 3): 2.53% | Response/Peptide ([1]; Table 3): 2.24 | Structure Value [1, 2]: 0.65 | Background +/− sd ([1]; Table 5, background response value): 2.54 +/− 2.23 | Responses/peptide found ([1]; Table 5, determined experimentally): 2.51 | Average percent response to epitope peptide [1]: 9.18%

BPN′ Y217L#37: 15-mer epitope peptide number 37 of BPN′ Y217L, amino acids 109-123 (NGIEWAIANNMDVIN)
Average percent response to epitope peptide [1]: 12.91%

GTTRSYANASIGLFG (synthetic variant) [L149S]
effect of substitution on percent of responders to the epitope [1]: had an effect on the epitope response rate

GTTRLYANASIGLFG (listed as Enterobacter cloacae) [Peptide #49]
statistical significance of the peptide response [1]: reached statistical significance using less conservative analyses

GTTRLYANASVGLFG (synthetic variant) [I155V]
effect of substitution on percent of responders to the epitope [1]: increased the percent of responders to the modified epitope sequence

Reference: patent US20080220450A1, “Population Based Prediction Methods for Immune Response Determinations and Methods for Verifying Immunological Response Data” (Danisco US, Inc., Genencor Division, priority 2004, published 2008)
